From patent US9447062B2, “Manumycin-type metabolite called Colabomycin E which inhibits caspase 1 and creation of interleukins, strain produces the Colabomycin E and a method of a production of the Colabomycin E” (BIOLOGY CENTRE AS CR, v. v. i., priority 2014, dated 2016)

Legend:
[1] = system: IL-1β release from THP-1 cells (caspase 1); assay: IL-1β release from TNFα-stimulated THP-1 cells; type: cell-based, human; details: for concentration at which the dose curve reached an inhibitory plateau (IL-1β release) / concentration from which IL-1β release is significantly inhibited: TNFα 50 ng/ml
Experimental: (§1) Antibacterial activity of colabomycin E was tested by disc diffusion method. The strains were cultivated on MH agar plates at 36° C., aerobically for 18 hrs. For streptococci the media was supplemented with 5% sheep blood and the bacteria were cultivated aerobically for 20 hrs in 5% CO2. Colabomycin E samples dissolved in dioxane were applied to standard 6 mm discs; therefore zone diameters below 7 mm indicate no growth inhibition. The anti-inflammatory effect of colabomycin E was assayed on the TNFα-stimulated human monocyte/macrophage cell line THP-1. The cells were cultured in RPMI-1640 medium, supplemented with 10% heat inactivated fetal calf serum (FCS), L-glutamine, penicillin and streptomycin. Cells were seeded into 6-well tissue culture plates at a density of 2×10^6 cells per 2 ml per well and cultured under a 5% CO2 atmosphere at 37° C. THP-1 cells were stimulated with TNFα (50 ng/ml) under serum free conditions in the presence of colabomycin or manumycin A.
Unstimulated cells were used as controls. IL-1β release was measured through flow cytometry in culture supernatants by Fluorokine MAP human base kit A using the Luminex^100 System. In the first step, 50 μl of the samples/standards were incubated with 50 μl of microparticles for 3 hours at RT on a horizontal orbital microplate shaker. After washing the unbound substances, 50 μl of the secondary antibodies conjugated with biotin was added to each well and incubated the samples/standards for another 1 hour. After the incubation, the unbound secondary antibodies were washed and 50 μl of the Streptavidin-PE was added. After the 30 minutes of incubation, the samples/standards were washed and resuspended the microparticles in 100 μl of wash buffer. Samples/standards were read using a Luminex analyzer.

[2] = system: human leukemic Jurkat cells; assay: Pro-apoptotic features, Annexin V-FITC flow cytometry; type: cell-based; details: 4 hours
Experimental: Proapoptotic features were assayed using human Jurkat cells. The cells were cultivated in RPMI medium supplemented with 10% FBS and antibiotics. Just before experiments cells were plated into the fresh medium at 4×10^5 cells/ml in 24-well cultivation plates. They were treated with increasing concentrations of manumycin A (positive control) and colabomycin E for 4 hours. Cells were then harvested by centrifugation and apoptotic cells were labeled by Annexin V-FITC. The stained cells were subsequently analyzed by flow cytometry analysis in a Guava EasyCyte flow cytometer and the obtained data were evaluated using FlowJo software.)

[3] = system: IL-8 production in THP-1 cells; assay: IL-8 production in THP-1 cells stimulated with TNFα; type: cell-based, human; details: 0.5 μM
Experimental: as §1

[4] = system: IL-6 production in THP-1 cells; assay: IL-6 production in THP-1 cells stimulated with TNFα; type: cell-based, human; details: 0.5 μM
Experimental: as §1

[5] = system: IL-18 production in THP-1 cells; assay: IL-18 production in THP-1 cells stimulated with TNFα; type: cell-based, human; details: 0.5 μM
Experimental: as §1

[6] = system: Gram^+ bacteria, mainly staphylococci and streptococci; assay: Antibacterial activity, disc diffusion method; type: cell-based
Experimental: (§2) FIG. 10: Antibacterial features of colabomycin E—disc diffusion method. Colabomycin E samples were applied to standard 6 mm discs; therefore the zone diameters bellow 7 mm mean no growth inhibition. The strains kindly provided by the Czech National Collection of Type Cultures.
as §1

Gram^− = assay: Antibacterial activity, disc diffusion method; type: cell-based
Experimental: as §2, §1

| Compound | concentration at which the dose curve reached an inhibitory plateau (IL-1β release) [1] | concentration from which IL-1β release is significantly inhibited [1] | IL-1β release from THP-1 cells [1] | pro-apoptotic features ([2]; 5 μM) | pro-apoptotic effect relative to manumycin A [2] | IL-8 production [3] | IL-6 production [4] | IL-18 production [5] | anti-bacterial effects (overall) [6] | growth of Gram+ bacteria ([6]; in higher concentrations) | effect on Gram− bacteria (Gram^−) |
| --- | --- | --- | --- | --- | --- | --- | --- | --- | --- | --- | --- |
| CCCC[C@@H](C)/C=C(C)/C=C(\C)C(=O)NC1=C[C@@](O)(/C=C/C=C/C=C/C(=O)NC2=C(O)CCC2=O)[C@@H]2O[C@@H]2C1=O [manumycin A, reference compound] | 0.5 µM | 0.25 µM | – | – | – | – | – | – | – | – | – |
| Colabomycin E | 0.5 µM | 0.25 µM | significantly inhibited | weak pro-apoptotic features | substantially weaker | inhibit | inhibit | inhibit | quite mild | suppresses growth | no effect |
